Data: US5856303A, “Peptide, a bronchus-expanding agent, and a blood-flow-improving agent” (Itoham Foods, Inc., priority 1995, dated 1999)
Ends that are not written are not given here.

What was measured:
[1] = test system: bronchial smooth muscle; experiment: Bronchus-expanding action: relaxation of carbachol-contracted guinea pig tracheal chain in organ bath; format: cell-based, guinea pigs; details: 0.1 μmol/l carbachol-contracted trachea
From the text: Purified peptides 1 to 15 obtained in Examples 1 to 15 were examined for their bronchus-expanding action in the following manner and compared with that of VIP and PACAP.
Male guinea pigs each weighing 450 to 500 g were cut at the jugular veins to open the chests, and immediately the tracheae were immediately removed. Their tracheae were immediately placed in a Krebs solution and cut into loops and then formed into a chain by linking the cartilage parts with one another via a steel string. Then, the cartilage parts in the opposite side to the smooth muscular parts were cut such that the smooth muscular parts were attached to one another. The resulting sample was placed in an about 10-ml isothermic organ bath and perpendicularly suspended. The lower part was fixed and the upper part was connected to a grass force transducer with a load of 1.4 g. A gas of 94% oxygen and 6% carbon dioxide was sufficiently blown into this sample while a Krebs solution containing 0.1μ mol/l carbachol was dropped to it at a rate of 0.33 ml/min. to determine relaxation action. Because the relaxation reaction occurs depending on the content of a test sample in this drop solution, this can be used to compare the relaxation action of VIP and PACAP and that of the peptides of the invention on the bronchial smooth muscle.
A solution of each of […], PACAP and the peptides of the invention was prepared in a concentration as high as 100-fold than the final concentration so that its concentration in the organ bath could be adjusted. 30 minutes after the carbachol-containing Krebs solution was dropped, 100 μl of the sample solution was dropped.
It was assumed that the degree of contraction of the smooth muscle is 0 in the absence of carbachol and the degree is 100 in the presence of carbachol. Minimum contraction degree A (i.e. maximum relaxation value) in the presence of the sample was determined, and maximum relaxation degree B was calculated as follows:
Maximum relaxation degree B (%)=100-A
The time required to reach half of the maximum relaxation value (referred to hereinafter as "half-time T") after the addition of the sample was determined.
A change in the relaxation degree of the bronchial smooth muscle with time was determined using each peptide at 3 dosages of 0.3 μM, 1 μM, and 3 μM respectively. The results are shown in the drawings: PACAP in FIG. 1; peptide 5 obtained in Example 5, in FIG. 2; VIP in FIG. 3; and peptide 11 obtained in Example 11, in FIG. 4. The maximum relaxation degree B at a dosage of 3 μM is 75% for peptide 5 and 80% for peptide 11, and half-time T is 360 minutes or more in both the cases.

[2] = test system: Wistar male rats; experiment: Blood-flow increasing action in anesthetized rats (femoral artery blood flow, carotid blood pressure); format: in vivo; details: 100 pmol/kg intraarterially, right femoral artery
Experimental: Purified peptides 1 to 15 obtained in Examples 1 to 15 were examined for their blood-flow increasing action and compared with those of VIP and PACAP. Wistar male rats each weighing 220 to 250 g were anesthetized by intraperitoneal administration of pentobarbital (25 mg/kg) and fixed on their back. An arterial canula was inserted into the carotid and then connected to a blood-pressure transducer (DX-300, Nippon Koden, Japan) via a doom kit (SCK-512, Nippon Koden) filled with heparin-containing physiological saline (10 U/ml) to measure blood pressure with a strain blood-pressure amplifier (AP-601G, Nippon Koden). Further, a blood-flow measurement probe (FR-030T, Nippon Koden) was attached to the right femoral artery and then connected to an electromagnetic blood-flow meter (MFV-3200, Nippon Koden) to measure blood flow. The dosage of each peptide intraarterially administrated was 100 pmol/kg.

## pituitary adenylate cyclase activating polypeptide (HSDGIFTDSYSRYRKQMAVKKYLAAVLGKRYKQRVKNK; ends and bridges not checked; UniProt P16613 132-169, looked up) [PACAP, structurally determined peptide consisting of 38 amino acid residues, isolated from sheep hypothalamus]
[1]; 0.3 μM
  Half-time T (time required to reach half of the maximum relaxation value): 60 min
  Maximum relaxation degree B: 40%
[1]; 1 μM
  Half-time T (time required to reach half of the maximum relaxation value): 60 min
  Maximum relaxation degree B: 90%
[1]; 3 μM
  Half-time T (time required to reach half of the maximum relaxation value): 100 min
  Maximum relaxation degree B: 90%
[2]
  Blood Flow (increase in blood flow): 16.04 ± 5.92 mL/min

## vasoactive intestinal peptide [VIP]
[1]; 0.3 μM
  Half-time T (time required to reach half of the maximum relaxation value): 130 min
  Maximum relaxation degree B: 45%
[1]; 1 μM
  Half-time T (time required to reach half of the maximum relaxation value): 150 min
  Maximum relaxation degree B: 80%
[1]; 3 μM
  Half-time T (time required to reach half of the maximum relaxation value): 240 min
  Maximum relaxation degree B: 85%
[2]
  Blood Flow (increase in blood flow): 10.18 ± 3.38 mL/min
